# Measured values reported in patent US20260053811A1, “METHODS OF TREATING HYPERTENSION IN OBESE SUBJECTS” (Mineralys Therapeutics, Inc., priority 2022, published 2026).
# Where “and” joins values, the source holds several entries; their conditions need not be identical. Equal entries are not always repeated.
# What was measured:
# [1] = system: hypertensive subjects; experiment: Estimated glomerular filtration rate (eGFR, CKD-EPI equation); type: in vivo, human; conditions: for Estimated Glomerular Filtration Rate, Mean (SD) Observed / Estimated Glomerular Filtration Rate, Mean (SD) Change from Baseline: Part 1; for Estimated Glomerular Filtration Rate, Mean Change from Baseline / Estimated Glomerular Filtration Rate, Mean Observed: Part 2; for Change in estimated glomerular filtration rate (eGFR): across dosing cohorts
# Procedure: In contrast, mean eGFR for the Placebo group was relatively stable throughout treatment, reaching a mean maximal reduction of −2.80 mL/min/1.73 m^2 at Week 2 (range: −0.83 mL/min/1.73 m^2 to −2.80 mL/min/1.73 m^2). Estimated glomerular filtration rate was estimated using the CKD-EPI equation.
# [2] = system: serum cortisol; experiment: Serum cortisol (pharmacodynamic response); type: in vivo, human; conditions: for Serum cortisol percent change from baseline / Cortisol, Mean Observed / Cortisol, Mean Percent Change from Baseline: Part 2; for Serum cortisol percent change from baseline, range across active arms / Cortisol, Mean (SD) Observed / Cortisol, Mean (SD) Percent Change from Baseline: Part 1
# Source text: PK/PD Analysis Set includes all subjects in the SAF who have sufficient data available for the analysis of pharmacokinetic and pharmacodynamic measurements. In the analyses based on PKPD, subjects will be analyzed according to the actual treatment received.
structure (smiles),measurement,setting,value
CC(=O)N[C@H]1CC[C@H](NC(=O)CN2CCN(c3nncc(-c4ccc(C)cc4)n3)CC2)CC1 [Compound A HBr],"Estimated Glomerular Filtration Rate, Mean (SD) Observed","[1]; Week 8, 12.5 mg BID",76.32 (19.63) mL/min/1.73 m^2
same,"Estimated Glomerular Filtration Rate, Mean (SD) Change from Baseline","[1]; Week 8, 12.5 mg QD",−3.67 (8.10) mL/min/1.73 m^2
same,"Estimated Glomerular Filtration Rate, Mean (SD) Observed","[1]; Week 8, 12.5 mg QD",76.00 (21.00) mL/min/1.73 m^2
same,"Estimated Glomerular Filtration Rate, Mean (SD) Change from Baseline","[1]; Week 8, 25 mg BID",−5.55 (9.22) mL/min/1.73 m^2
same,"Estimated Glomerular Filtration Rate, Mean (SD) Observed","[1]; Week 8, 25 mg BID",75.11 (14.81) mL/min/1.73 m^2
same,"Estimated Glomerular Filtration Rate, Mean (SD) Change from Baseline","[1]; Week 8, 50 mg QD",−4.64 (9.87) mL/min/1.73 m^2
same,"Estimated Glomerular Filtration Rate, Mean (SD) Observed","[1]; Week 8, 50 mg QD",72.54 (16.89) mL/min/1.73 m^2
same,"Estimated Glomerular Filtration Rate, Mean (SD) Change from Baseline","[1]; Week 8, 100 mg QD",−7.83 (11.62) mL/min/1.73 m^2
same,"Estimated Glomerular Filtration Rate, Mean (SD) Observed","[1]; Week 8, 100 mg QD",68.42 (20.14) mL/min/1.73 m^2
same,"Estimated Glomerular Filtration Rate, Mean Change from Baseline","[1]; Week 1, 100 mg QD",−9.65 mL/min/1.73 m^2
same,"Estimated Glomerular Filtration Rate, Mean Observed","[1]; Week 1, 100 mg QD",70.73 mL/min/1.73 m^2
same,"Estimated Glomerular Filtration Rate, Mean Change from Baseline","[1]; Week 2, 100 mg QD",−8.05 mL/min/1.73 m^2
same,"Estimated Glomerular Filtration Rate, Mean Observed","[1]; Week 2, 100 mg QD",72.07 mL/min/1.73 m^2
same,"Estimated Glomerular Filtration Rate, Mean Change from Baseline","[1]; Week 3, 100 mg QD",−7.33 mL/min/1.73 m^2
same,"Estimated Glomerular Filtration Rate, Mean Observed","[1]; Week 3, 100 mg QD",72.69 mL/min/1.73 m^2
same,"Estimated Glomerular Filtration Rate, Mean Change from Baseline","[1]; Week 4, 100 mg QD",−7.20 mL/min/1.73 m^2
same,"Estimated Glomerular Filtration Rate, Mean Observed","[1]; Week 4, 100 mg QD",72.92 mL/min/1.73 m^2
same,"Estimated Glomerular Filtration Rate, Mean Change from Baseline","[1]; Week 5, 100 mg QD",−8.69 mL/min/1.73 m^2
same,"Estimated Glomerular Filtration Rate, Mean Observed","[1]; Week 5, 100 mg QD",71.23 mL/min/1.73 m^2
same,"Estimated Glomerular Filtration Rate, Mean Change from Baseline","[1]; Week 6, 100 mg QD",−10.87 mL/min/1.73 m^2
same,"Estimated Glomerular Filtration Rate, Mean Observed","[1]; Week 6, 100 mg QD",68.04 mL/min/1.73 m^2
same,"Estimated Glomerular Filtration Rate, Mean Change from Baseline","[1]; Week 7, 100 mg QD",−7.34 mL/min/1.73 m^2
same,"Estimated Glomerular Filtration Rate, Mean Observed","[1]; Week 7, 100 mg QD",72.82 mL/min/1.73 m^2
same,"Estimated Glomerular Filtration Rate, Mean Change from Baseline","[1]; Week 8, 100 mg QD",−7.95 mL/min/1.73 m^2
same,"Estimated Glomerular Filtration Rate, Mean Observed","[1]; Week 8, 100 mg QD",72.43 mL/min/1.73 m^2
same,Change in estimated glomerular filtration rate (eGFR),[1],dose-dependent and reversible reduction in eGFR
same,Change in estimated glomerular filtration rate (eGFR),[1]; listed as lorundrostat,dose-dependent and reversible reduction in eGFR
same,Serum cortisol percent change from baseline,"[2]; 100 mg QD, Week 4",20.1%
same,Serum cortisol percent change from baseline,"[2]; 100 mg QD, Week 8",153.4%
same,Serum cortisol percent change from baseline,"[2]; 100 mg QD, Week 12",1.5%
same,"Serum cortisol percent change from baseline, range across active arms",[2]; Week 4,3.8% to 19.2%
same,"Serum cortisol percent change from baseline, range across active arms",[2]; Week 8,20.6% to 51.4%
same,"Serum cortisol percent change from baseline, range across active arms","[2]; Week 12, listed as lorundrostat",−1.2% to 22.7% and −1.2 to 22.6%
same,"Cortisol, Mean (SD) Observed","[2]; Wk 4, 12.5 mg BID",10.895 (3.859) μg/dL
same,"Cortisol, Mean (SD) Percent Change from Baseline","[2]; Wk 4, 12.5 mg BID",10.26 (45.03) %
same,"Cortisol, Mean (SD) Observed","[2]; Wk 4, 12.5 mg QD",9.305 (4.164) μg/dL
same,"Cortisol, Mean (SD) Percent Change from Baseline","[2]; Wk 4, 12.5 mg QD",7.47 (37.82) %
same,"Cortisol, Mean (SD) Observed","[2]; Wk 4, 25 mg BID",12.311 (5.180) μg/dL
same,"Cortisol, Mean (SD) Percent Change from Baseline","[2]; Wk 4, 25 mg BID",19.20 (49.39) %
same,"Cortisol, Mean (SD) Observed","[2]; Wk 4, 50 mg QD",10.875 (3.368) μg/dL
same,"Cortisol, Mean (SD) Percent Change from Baseline","[2]; Wk 4, 50 mg QD",3.83 (32.48) %
same,"Cortisol, Mean (SD) Observed","[2]; Wk 4, 100 mg QD",11.842 (4.350) μg/dL
same,"Cortisol, Mean (SD) Percent Change from Baseline","[2]; Wk 4, 100 mg QD",3.91 (32.33) %
same,"Cortisol, Mean (SD) Observed","[2]; Wk 8, 12.5 mg BID",12.316 (7.649) μg/dL
same,"Cortisol, Mean (SD) Percent Change from Baseline","[2]; Wk 8, 12.5 mg BID",20.56 (73.01) %
same,"Cortisol, Mean (SD) Observed","[2]; Wk 8, 12.5 mg QD",12.511 (8.784) μg/dL
same,"Cortisol, Mean (SD) Percent Change from Baseline","[2]; Wk 8, 12.5 mg QD",41.84 (90.37) %
same,"Cortisol, Mean (SD) Observed","[2]; Wk 8, 25 mg BID",15.525 (8.258) μg/dL
same,"Cortisol, Mean (SD) Percent Change from Baseline","[2]; Wk 8, 25 mg BID",49.57 (77.17) %
same,"Cortisol, Mean (SD) Observed","[2]; Wk 8, 50 mg QD",15.650 (7.102) μg/dL
same,"Cortisol, Mean (SD) Percent Change from Baseline","[2]; Wk 8, 50 mg QD",51.35 (78.86) %
same,"Cortisol, Mean (SD) Observed","[2]; Wk 8, 100 mg QD",16.680 (9.083) μg/dL
same,"Cortisol, Mean (SD) Percent Change from Baseline","[2]; Wk 8, 100 mg QD",47.29 (92.65) %
same,"Cortisol, Mean (SD) Observed","[2]; Wk 12, 12.5 mg BID",9.978 (2.742) μg/dL
same,"Cortisol, Mean (SD) Percent Change from Baseline","[2]; Wk 12, 12.5 mg BID",−1.22 (21.10) %
same,"Cortisol, Mean (SD) Observed","[2]; Wk 12, 12.5 mg QD",9.317 (3.294) μg/dL
same,"Cortisol, Mean (SD) Percent Change from Baseline","[2]; Wk 12, 12.5 mg QD",18.06 (48.59) %
same,"Cortisol, Mean (SD) Observed","[2]; Wk 12, 25 mg BID",12.559 (4.287) μg/dL
same,"Cortisol, Mean (SD) Percent Change from Baseline","[2]; Wk 12, 25 mg BID",22.65 (41.94) %
same,"Cortisol, Mean (SD) Observed","[2]; Wk 12, 50 mg QD",11.262 (3.590) μg/dL
same,"Cortisol, Mean (SD) Percent Change from Baseline","[2]; Wk 12, 50 mg QD",6.91 (35.36) %
same,"Cortisol, Mean (SD) Observed","[2]; Wk 12, 100 mg QD",12.680 (5.659) μg/dL
same,"Cortisol, Mean (SD) Percent Change from Baseline","[2]; Wk 12, 100 mg QD",8.40 (30.09) %
same,"Cortisol, Mean Observed","[2]; Wk 4, 100 mg QD",13.464 µg/dL
same,"Cortisol, Mean Percent Change from Baseline","[2]; Wk 4, 100 mg QD",20.10%
same,"Cortisol, Mean Observed","[2]; Wk 8, 100 mg QD",25.393 µg/dL
same,"Cortisol, Mean Percent Change from Baseline","[2]; Wk 8, 100 mg QD",153.35%
same,"Cortisol, Mean Observed","[2]; Wk 10, 100 mg QD",10.763 µg/dL
same,"Cortisol, Mean Percent Change from Baseline","[2]; Wk 10, 100 mg QD",1.45%
same,Effects on serum cortisol,[2]; pooled (Part 1 and Part 2) 100 mg QD safety set (n=60),no effects on serum cortisol
same,Effects on serum cortisol,"[2]; safety dataset, complete analysis",no effects on serum cortisol
same,Morning serum cortisol levels,[2]; summary of trial,modestly increased
